Like-named read-outs stand apart in the source and are kept apart here.
Columns and labels:
Type in all cases: cell-based
[1] = system: BaF3_EGFRWT cells; assay: Cell growth inhibition assay, BaF3_EGFRWT; conditions: 80 ng/mL recombinant human EGF, 3 days treatment, CellTiterGlo 2.0, read-out: EGFR WT IC50 (nM), cell growth inhibition
[2] = system: BaF3_HER2WT cells; assay: Cell growth inhibition assay, BaF3_HER2WT; conditions: 3 days treatment, CellTiterGlo 2.0, read-out: HER2 WT IC50 (nM), cell growth inhibition
[3] = system: BaF3_HER2YVMA cells; assay: Cell growth inhibition assay, BaF3_HER2YVMA; conditions: read-out: HER2-YVMA IC50 (nM), cell growth inhibition
[4] = 72 h, BaF3_HER2YVMA cells, 3 days treatment, CellTiterGlo 2.0

Structure (SMILES)	IC50 ([1]; 72 h)	IC50 ([2]; 72 h)	IC50 [3, 4]	IC50 [1]	IC50 [2]	IC50 ([3]; BaF3_HER2YVMA cells, 3 days treatment, CellTiterGlo 2.0)	IC50 ([3]; 72 h)
C=C(C#N)C(=O)N1CCC(c2ccn3ncnc(Nc4ccc(Oc5ccn6ncnc6c5)c(C)c4)c23)CC1 [Example 27, 2-(4-(4-((4-([1,2,4]triazolo[1,5-a]pyridin-7-yloxy)-3-methylphenyl)amino)pyrrolo[2,1-f][1,2,4]triazin-5-yl)piperidine-1-carbonyl)acrylonitrile]	1500 to 5000 nM	500 to 1500 nM	–	–	–	–	1500 to 5000 nM
Cc1cc(Nc2ncnn3ccc(N4CC5CCC(C4)N5C(=O)/C=C/CN(C)C)c23)ccc1Oc1ccn2ncnc2c1 [Example 47, (E)-1-(3-(4-((4-([1,2,4]triazolo[1,5-a]pyridin-7-yloxy)-3-methylphenyl)amino)pyrrolo[2,1-f][1,2,4]triazin-5-yl)-3,8-diazabicyclo[3.2.1]octan-8-yl)-4-(dimethylamino)but-2-en-1-one]	1500 to 5000 nM	< 200 nM	< 200 nM	–	–	–	–
C=CC(=O)N1C2CCC1CC(c1ccn3ncnc(Nc4ccc(Oc5ccn6ncnc6c5)c(C)c4)c13)C2 (single isomer, unassigned) [Examples 124 and 125, first eluting isomer, 1-(3-(4-((4-([1,2,4]triazolo[1,5-a]pyridin-7-yloxy)-3-methylphenyl)amino)pyrrolo[2,1-f][1,2,4]triazin-5-yl)-8-azabicyclo[3.2.1]octan-8-yl)prop-2-en-1-one]	< 200 nM	< 200 nM	< 200 nM	–	–	–	–
C=C(CN(C)C)C(=O)N1CC2CCC1CC2c1ccn2ncnc(Nc3ccc(Oc4ccn5ncnc5c4)c(C)c3)c12 (single isomer, unassigned) [Examples 135 and 136, second eluting isomer, 1-(5-(4-((4-([1,2,4]triazolo[1,5-a]pyridin-7-yloxy)-3-methylphenyl)amino)pyrrolo[2,1-f][1,2,4]triazin-5-yl)-2-azabicyclo[2.2.2]octan-2-yl)-2-((dimethylamino)methyl)prop-2-en-1-one]	–	–	–	< 200 nM	< 200 nM	200 to 500 nM	–
Cc1cc(Nc2ncnn3ccc(C4CN(C(=O)/C=C\C56CCCN5CCC6)C4)c23)ccc1Oc1ccn2ncnc2c1 [Example 160, (Z)-1-(3-(4-((4-([1,2,4]triazolo[1,5-a]pyridin-7-yloxy)-3-methylphenyl)amino)pyrrolo[2,1-f][1,2,4]triazin-5-yl)azetidin-1-yl)-3-(tetrahydro-1H-pyrrolizin-7a(5H)-yl)prop-2-en-1-one]	1500 to 5000 nM	< 200 nM	< 200 nM	–	–	–	–
Cc1cc(Nc2ncnn3ccc(C4CN(C(=O)/C=C/CN5CCC(F)(F)CC5)C4)c23)ccc1Oc1ccn2ncnc2c1 [Example 85, (E)-1-(3-(4-((4-([1,2,4]triazolo[1,5-a]pyridin-7-yloxy)-3-methylphenyl)amino)pyrrolo[2,1-f][1,2,4]triazin-5-yl)azetidin-1-yl)-4-(4,4-difluoropiperidin-1-yl)but-2-en-1-one]	1500 to 5000 nM	< 200 nM	< 200 nM	–	–	–	–

More lines, main results first:

IC50 ([1]; 72 h)	IC50 ([2]; 72 h)	IC50 [3, 4]	IC50 [1]	IC50 [2]	IC50 ([3]; BaF3_HER2YVMA cells, 3 days treatment, CellTiterGlo 2.0)	Structure (SMILES)	IC50 ([3]; 72 h)
1500 to 5000 nM	1500 to 5000 nM	1500 to 5000 nM	–	–	–	Cc1cc(Nc2ncnn3ccc(C4CN(C(=O)/C(C#N)=C/C(C)(C)C)C4)c23)ccc1Oc1ccn2ncnc2c1 [Example 89, (E)-2-(3-(4-((4-([1,2,4]triazolo[1,5-a]pyridin-7-yloxy)-3-methylphenyl)amino)pyro-lo[2,1-f][1,2,4]triazin-5-yl)azetidine-1-carbonyl)-4,4-dimethylpent-2-enenitrile]	–
1500 to 5000 nM	< 200 nM	< 200 nM	–	–	–	Cc1cc(Nc2ncnn3ccc(C4CN(C(=O)/C=C/C5CCCN5C)C4)c23)ccc1Oc1ccn2ncnc2c1 (stereo not drawn) [Example 66, (E)-1-(3-(4-((4-([1,2,4]triazolo[1,5-a]pyridin-7-yloxy)-3-methylphenyl)amino)pyrrolo[2,1-f][1,2,4]triazin-5-yl)azetidin-1-yl)-3-(1-methylpyrrolidin-2-yl)prop-2-en-1-one]	–
1500 to 5000 nM	200 to 500 nM	1500 to 5000 nM	–	–	–	Cc1cc(Nc2ncnn3ccc(C4CCN(C(=O)[C@H](F)Cl)CC4)c23)ccc1Oc1ccn2ncnc2c1 (single isomer, unassigned) [Examples 173 and 174, first eluting isomer]	–
